In patent US11976070B1, “Substituted pyrimido[6’, 1’:2,3]imidazo[4,5-c][1,6]naphthyridines as CK2 inhibitors” (KING FAISAL UNIVERSITY, priority 2023, dated 2024):
Where two headings read alike, the source gives them in different places.

What was measured:
H1299 (lung) = experiment: In vitro cytotoxic activity (MTT) assay, H1299; format: cell-based; conditions: Homo sapiens, NCI-H1299; H1299 (lung) cells, exposed for 96 hours; read-out: IC50, 50% inhibition of cell proliferation
Method: (§1) Compounds 1-12 were screened for their in vitro cytotoxic activity utilizing a 3-(4,5-dimethyl-thiazol-2-yl)-2,5-diphenyltetrazolium bromide (MTT) assay against selected cancer human cell lines consisting of PC3 (prostate), HCT116 (colon). A375 (melanoma), H1299 (lung), MIAPaCa-2 (pancreas), HL60 (leukemia), MCF7 (breast), MDA-MB-231 (breast) (T. Mosmann, J. Immunol. Meth., 1983, 65, 55-63). The cells were cultured at 37° C. in RMPI1640 medium supplemented with 10% fetal bovine serum, 50 IU/mL penicillin, and 50 μg/mL streptomycin in a 5% CO2 incubator. All cells were sub-cultured 3 times/week by trypsinisation. Viable cells were seeded and allowed to adhere for 12 h before a test drug was added in 96-well plates at an initial density of 1.0×10^5 cells/mL. Tumour cell lines were separately exposed to various concentrations of the tested compounds followed by incubation at a temperature of 37° C. during 96 h inside a medium of fresh RMPI 1640. Cells were subsequently incubated at 37° C. using MTT at 0.5 mg/mL during 4 h. After removal of supernatant, formazan crystals were dissolved in isopropanol and the optical density was measured at 570 nm. CX-4945 was used as a positive control.

[1] = tested on: various human cancer cell lines; experiment: In vitro cytotoxic activity assay, panel statement; format: cell-based
Method: as §1

MCF7 (breast) = experiment: In vitro cytotoxic activity (MTT) assay, MCF7; format: cell-based; conditions: Homo sapiens; MCF7 (breast) cells, exposed for 96 hours; read-out: IC50, 50% inhibition of cell proliferation
Method: as §1

HL60 (leukemia) = experiment: In vitro cytotoxic activity (MTT) assay, HL60; format: cell-based; conditions: Homo sapiens, HL-60; HL60 (leukemia) cells, exposed for 96 hours; read-out: IC50, 50% inhibition of cell proliferation
Method: as §1

HCT116 (colon) = experiment: In vitro cytotoxic activity (MTT) assay, HCT116; format: cell-based; conditions: Homo sapiens, HCT-116; HCT116 (colon) cells, exposed for 96 hours; read-out: IC50, 50% inhibition of cell proliferation
Method: as §1

MIAPaCa-2 (pancreas) = experiment: In vitro cytotoxic activity (MTT) assay, MIAPaCa-2; format: cell-based; conditions: Homo sapiens, MIA PaCa-2; MIAPaCa-2 (pancreas) cells, exposed for 96 hours; read-out: IC50, 50% inhibition of cell proliferation
Method: as §1

PC3 (prostate) = experiment: In vitro cytotoxic activity (MTT) assay, PC3; format: cell-based; conditions: Homo sapiens, Prostate cell; PC3 (prostate) cells, exposed for 96 hours; read-out: IC50, 50% inhibition of cell proliferation
Method: as §1

[2] = target: T1, recombinant human CK2 (RRββ-holoenzyme) (Homo sapiens, UniProt P68400); experiment: CK2 Kinase Assay (radiometric, [γ-33P]ATP); format: biochemical; conditions: final ATP 15 μM, 10 min at 30° C.; read-out: protein kinase CK2 inhibition IC50
T1 construct: purchased Millipore
Method: CK2 Kinase Assay was conducted using the protocol as described in Pierre F. et al; J. Med. Chem. 2011, 54, 635-654. The tested compounds in aqueous solution were added at a volume of 10 μL to a reaction mixture comprising 10 μL of assay dilution buffer (ADB; 20 mM MOPS, pH 7.2, 25 mM β-glycerol phosphate, 5 mM EGTA, 1 mM sodium orthovanadate, and 1 mM dithiothreitol), 10 μL of substrate peptide (RRRDDDSDDD, dissolved in ADB at a concentration of 1 mM), 10 μL of recombinant human CK2 (RRββ-holoenzyme, 25 ng dissolved in ADB; Millipore). Reactions were initiated by the addition of 10 μL of ATP solution (90% 75 mMMgCl2, 75 μM ATP (final ATP concentration:15 μM) dissolved in ADB; 10% [γ-33P] ATP (stock 1 mCi/100 μL: 3000 Ci/mmol (Perkin-Elmer) and maintained for 10 min at 30° C. The reactions were quenched with 100 μL of 0.75% phosphoric acid and then transferred to and filtered through a phosphor cellulose filter plate (Millipore). After washing each well five times with 0.75% phosphoric acid, the plate was dried under vacuum for 5 min and, following the addition of 15 μL of scintillation fluid to each well, the residual radioactivity was measured using a Wallac […]. The IC50 values were derived from eight concentrations of test inhibitors.

A375 (melanoma) = experiment: In vitro cytotoxic activity (MTT) assay, A375; format: cell-based; conditions: Homo sapiens, A-375; A375 (melanoma) cells, exposed for 96 hours; read-out: IC50, 50% inhibition of cell proliferation
Method: as §1

MDA-MB-231 (breast) = experiment: In vitro cytotoxic activity (MTT) assay, MDA-MB-231; format: cell-based; conditions: Homo sapiens; MDA-MB-231 (breast) cells, exposed for 96 hours; read-out: IC50, 50% inhibition of cell proliferation
Method: as §1

T1 sequence (P68400 whole entry): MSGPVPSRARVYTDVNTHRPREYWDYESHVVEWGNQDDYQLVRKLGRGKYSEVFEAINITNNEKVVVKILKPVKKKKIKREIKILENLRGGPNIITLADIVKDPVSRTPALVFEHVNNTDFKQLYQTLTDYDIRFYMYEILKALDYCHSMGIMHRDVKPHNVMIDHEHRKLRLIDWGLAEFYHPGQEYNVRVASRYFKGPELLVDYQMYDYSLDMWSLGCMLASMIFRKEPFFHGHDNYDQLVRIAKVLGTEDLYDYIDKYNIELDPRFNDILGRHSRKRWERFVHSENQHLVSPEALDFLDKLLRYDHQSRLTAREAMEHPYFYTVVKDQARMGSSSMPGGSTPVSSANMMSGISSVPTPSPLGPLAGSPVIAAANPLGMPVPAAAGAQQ
T1 sequence (P67870 whole entry partner): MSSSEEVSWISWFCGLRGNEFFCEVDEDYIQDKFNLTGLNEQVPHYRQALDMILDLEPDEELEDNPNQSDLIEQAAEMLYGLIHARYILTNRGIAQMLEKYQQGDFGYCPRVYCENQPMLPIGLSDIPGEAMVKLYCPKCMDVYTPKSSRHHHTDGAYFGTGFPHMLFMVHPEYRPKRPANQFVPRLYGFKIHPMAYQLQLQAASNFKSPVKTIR

Clc1cccc(Nc2nc3ccncc3c3nc4ccncn4c23)c1 [Compound 1, N-(3-chlorophenyl)pyrimido[6′,1′:2,3]imidazo[4,5-c][1,6]naphthyridin-6-amine]
IC50 (H1299 (lung)): 2500 nM | in vitro anti-proliferative activity, in words [1]: promising anti-proliferative activity | in vitro anti-proliferative activity, in words ([1]; listed as 13): promising in vitro anti-proliferative activity | IC50 (MCF7 (breast)): 5100 nM | IC50 (HL60 (leukemia)): 3200 nM | IC50 (HCT116 (colon)): 1100 nM | IC50 (MIAPaCa-2 (pancreas)): 900 nM | IC50 (PC3 (prostate)): 1400 nM | IC50 [2]: 22 nM | IC50 (A375 (melanoma)): 2900 nM | IC50 (MDA-MB-231 (breast)): 4500 nM
